# Laboratory results as given in patent US20120264231A1, “ASSAY FOR ORAI CALCIUM CHANNEL REGULATORS” (IMMUNE DISEASE INSTITUTE, INC., priority 2009, published 2012).
# Where two headings read alike, the source gives them in different places.
# Legend:
# [1] = test system: P pastoris cells that were not engineered to express ORAI3
# Experimental: (§1) Human ORAI3 was expressed in P. pastoris as described below. Then ^45Ca^2+ uptake was measured in a suspension of P. pastoris cells expressing ORAI3, after addition of 2-aminoethoxydiphenyl borate (2-APB), a compound known to activate ORAI3 expressed in mammalian cells.
# • Streaked out Pichia glycerol stock on RDB-plate • Grew 2-5 days at 30° C. (until colonies are large enough to easily remove) Seeded 5 mL MGY medium with 1 colony • Grew 2 days in 50 mL Falcon tube (cap partially unscrewed but taped on to allow aeration), 250 rpm, 30° C. • Seeded 50 mL MGY with the 5 mL culture (use a yeast-specific baffled flask; if scaled up, the volume of the culture was 1/10th the volume of the flask) • Grew o/n, 30° C., 250 rpm • At OD ˜2-3, spun down, checked OD and resuspended in MMY at an approximate OD of 6 (i.e., 6×5E7 cells/mL) • Grew 4 h at 28.5° C., 250 rpm, 28.5° C., with the top of the flask covered in gauze (not foil or a lid—a lot of aeration needed for induction. The temperature was under 30° C.) • Measured OD • Washed 3×25 mL in Solution A • Resuspended in Solution A for a final OD of 2 (1×10^8 cells/mL) […]
# [2] = target: human ORAI3 (Homo sapiens, UniProt Q9BRQ5); conditions: for ^45Ca^2+ uptake (cpm): 75 μM 2-APB
# Experimental: as §1
# Individual colonies were picked, and ORAI3 protein expression was induced by growth for eight hours in MMY medium (containing 0.5% methanol), whose formulation is given below. Cells were collected by centrifugation, and disrupted by vortexing in an Eppendorf tube with 0.5 mm glass beads. Beads, unbroken cells, and debris were removed by centrifugation at 5000 rpm in a benchtop centrifuge. The supernatant from that centrifugation was centrifuged at 100,000×g to pellet cell membranes. Cell membranes were resuspended, protein concentrations determined by Lowry or Bradford assay, and an equal amount of protein from each sample subjected to SDS-polyacrylamide gel electrophoresis and western blotting. The relative levels of Myc-ORAI3 expressed by individual colonies were compared by western blotting with antibody to the Myc tag. Colonies expressing relatively high levels of ORAI3 protein were used for the ^45Ca^2+ uptake assay.
# • Streaked out Pichia glycerol stock on RDB-plate • Grew 2-5 days at 30° C. (until colonies are large enough to easily remove) Seeded 5 mL MGY medium with 1 colony • Grew 2 days in 50 mL Falcon tube (cap partially unscrewed but taped on to allow aeration), 250 rpm, 30° C. • Seeded 50 mL MGY with the 5 mL culture (use a yeast-specific baffled flask; if scaled up, the volume of the culture was 1/10th the volume of the flask) • Grew o/n, 30° C., 250 rpm • At OD ˜2-3, spun down, checked OD and resuspended in MMY at an approximate OD of 6 (i.e., 6×5E7 cells/mL) • Grew 4 h at 28.5° C., 250 rpm, 28.5° C., with the top of the flask covered in gauze (not foil or a lid—a lot of aeration needed for induction. The temperature was under 30° C.) • Measured OD • Washed 3×25 mL in Solution A • Resuspended in Solution A for a final OD of 2 (1×10^8 cells/mL)
# • (Prepared everything else: 1 μCi/μL ^45CaCl2, 1 mL Solution S aliquots in tubes that can hold at least 2 mL, tips, etc.) • Spun sample (either 1 mL or the multiple-mL timepoint aliquot) down at 2000×g and resuspended in an equal volume of Solution C • (where applicable, added 2-APB or other things such as Solution S or lanthanum here. 75 μM 2-APB with Orai3.) • Added 1 μCi ^45CaCl2/Ml • Incubated as appropriate • When timepoint was taken, 1 mL sample (gently pipetted up and down, since Pichia settle) and added to 1 mL Solution S • Collected all samples • (This was repeated for each sample.) Presoaked 2.5 cm Whatman GF/F filter in place on the filter apparatus with 1 mL Solution S • Added the 2 mL sample/Solution S mix to the column • Turned on the vacuum and wash 3×15 mL with Solution W • Let filter dry under vacuum & removed to scintillation vial • Placed filter flat on the bottom of the vial, yeast-side up • Carefully added scintillation fluid • Counted in scintillation counter (^45Ca settings, if possible: window is 0-750, quench curve calibrations)
# [3] = test system: STIM1−/− T cells; test: Single-cell [Ca2+]i measurement in STIM1−/− T cells expressing STIM1 fragments; type: cell-based, murine
# From the text: To determine the competence of STIM 1 fragments to activate ORAI1 in mammalian cells, Myc-tagged STIM 1^CT and its truncated variants were introduced by retroviral expression into STIM1−/− T cells, and their ability to elevate resting Ca^2+ permeability was examined in cells loaded with Fura-2. As in human Jurkat T cells (Huang, G. N., et al., (2006); supra), expression of the soluble cytoplasmic portion of STIM 1 activated Ca^2+ influx into STIM1−/− murine T cells (FIG. 11). Elevated Ca^2+ permeability was evident in a marked increase in cytoplasmic [Ca^2+] on changing to medium containing 2 mM Ca^2+ after brief exposure to nominally Ca^2+-free medium. […] Retroviral vector alone conferred no constitutive influx above the level in control cells, as previously shown (Oh-hora, M., et al., (2008), supra).
# Retroviral expression plasmids encoding mouse STIM 1 and its cytoplasmic fragments (residues 233-685, 233-600, 233-498, or 233-463) were constructed by inserting the corresponding coding sequences between the XhoI and EcoRI sites of the vector pMSCV-CITE-eGFP-PGK-Puro (Clontech), which allows for coexpression of the inserted gene, GFP, and a puromycin resistance gene. GFP expression was used to estimate transducing efficiency.
# Primary CD4^+ cells were purified from spleen and lymph nodes of Stim1^f1/f1 CD4-Cre^+ mice using Dynal magnetic beads (Invitrogen) following the manufacturer's instructions. Purified T cells were stimulated with anti-CD3 and anti-CD28, transduced with retroviruses obtained from transfected Phoenix packaging cells, and further expanded in IL-2-containing medium as described (Oh-hora, M., et al., Nat Immunol 9, 432-443 (2008); Ansel, K. M., et al., Nat Immunol 5, 1251-1259 (2004)). The transduction efficiency (>80%) was estimated by evaluating GFP expression using flow cytometry.
# Retrovirus-transduced CD4^+ cells isolated from Stim1^f1/f1 CD4-Cre^+ mice were incubated overnight in IL-2 free RPMI medium and loaded with 2 μM Fura-2-acetoxylmethyl ester (Invitrogen) for 45 min at ambient temperature in the dark. T cells were further attached to coverslips precoated with 0.01% poly-L-lysine, mounted to a RC-20 closed-bath flow chamber (Warner Instrument), and bathed in Ringer's solution (155 mM NaCl, 4.5 mM KCl, 2 mM CaCl2, 1 mM MgCl2, 10 mM D-glucose and 5 mM HEPES, pH 7.4). For nominally Ca^2+-free Ringer's solution CaCl2 was replaced with MgCl2. After 5 minutes of equilibration in Ringer's solution, [Ca^2+]i measurement commenced with ˜3 min perfusion of T cells with Ca^2+-free Ringer's solution at ambient temperature, followed by perfusion of Ringer's solution containing 2 mM CaCl2. The cycle was repeated once with final addition of Ringer's solution supplemented with 2 μM LaCl3 to block Ca^2+ flux. Images were acquired using a Zeiss Axiovert S200 epifluorescence microscope and OpenLab imaging analysis software (Improvision). The fluorescence data (F340 nm/F380 nm) were collected every 4 s and analyzed as described (Oh-hora, M., et al., (2008), supra; Feske, S., et al., Nature 441, 179-185 (2006)). In each experiment, for each experimental condition, 50-100 GFP-positive CD4+ T cells were analyzed.
# [4] = target: ORAI1 (E106Q) (Homo sapiens, UniProt Q96D31, E106Q); test: Tb3+ luminescence resonance energy transfer, lanthanide binding to ORAI1; parameters: Human ORAI1 (65-301) with an N-terminal FLAG tag was subcloned into the pPIC3.5K vector; made in house; host or cells: Pichia pastoris (membranes)
# Experimental: Tb3+ luminescence resonance energy transfer (Tb3+-LRET) experiments were performed on a FluoroLog®-3 spectrofluorometer (HORIBA Scientific) with a 1-cm lengthpath cuvette at ambient temperature. Emission spectra were collected from 500 to 600 nm with the excitation set at 282 nm, or at 295 nm to minimize the contribution from tyrosine. The slit widths for excitation and emission were set at 4 nm and 8 nm, respectively. A glass filter with cutoff of ˜320 nm was used to circumvent light scattering. […] Spectra from membranes lacking ORAI1, with the same total membrane protein content, served as negative control.
# In each case, a scan of luminescence emission from membrane suspension alone was obtained, then Tb3+ was added into the cuvette and a second scan was performed (FIG. 12). Protein content of the two samples was the same. The presence of equivalent amounts of membrane microsomes was also evidenced by identical light scattering in the two cases prior to addition of Tb3+. Characteristic Tb3+ emission peaks at 547 nm and 589 nm were prominent in the ORAI sample, attributable to energy transfer from one or more of the native tryptophan residues of the protein.
# [5] = target: endogenous CRAC channels (ORAI1) of STIM1-/- murine T cells (mouse) (UniProt Q8BWG9); test: cell-based or functional assay
# endogenous CRAC channels (ORAI1) of STIM1-/- murine T cells (mouse), sequence (Q8BWG9 whole entry): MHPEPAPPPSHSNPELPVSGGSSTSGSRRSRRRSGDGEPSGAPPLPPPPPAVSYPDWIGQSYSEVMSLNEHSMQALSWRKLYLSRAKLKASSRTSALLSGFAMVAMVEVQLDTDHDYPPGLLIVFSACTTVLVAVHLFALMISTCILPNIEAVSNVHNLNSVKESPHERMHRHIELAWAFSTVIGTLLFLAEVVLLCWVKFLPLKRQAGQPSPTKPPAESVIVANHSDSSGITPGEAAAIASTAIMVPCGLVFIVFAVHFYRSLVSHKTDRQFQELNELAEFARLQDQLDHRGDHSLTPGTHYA
# ORAI1 (E106Q), sequence (Q96D31 65-301 E106Q): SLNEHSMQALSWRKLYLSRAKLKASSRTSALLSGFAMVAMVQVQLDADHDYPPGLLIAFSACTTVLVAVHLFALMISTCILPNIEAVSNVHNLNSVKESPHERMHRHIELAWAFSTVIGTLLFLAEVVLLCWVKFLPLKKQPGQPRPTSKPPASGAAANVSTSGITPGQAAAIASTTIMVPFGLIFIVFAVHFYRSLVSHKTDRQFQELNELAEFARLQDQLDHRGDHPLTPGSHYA
compound,measurement,setting,value
"NCCOB(c1ccccc1)c1ccccc1 [2-APB, 2-aminoethoxydiphenyl borate]",effect on ^45Ca^2+ uptake,[1],did not have this effect
same,rate and extent of ^45Ca^2+ uptake,[2]; 75 μM 2-APB versus control suspensions without 2-APB,increased
same,^45Ca^2+ uptake (cpm),[2]; 0.5 min,2729.9 cpm
same,^45Ca^2+ uptake (cpm),[2]; 1 min,3137.3 cpm
same,^45Ca^2+ uptake (cpm),[2]; 2 min,4662.1 cpm
same,^45Ca^2+ uptake (cpm),[2]; 4 min,6019.2 cpm
same,^45Ca^2+ uptake (cpm),[2]; ~0.25 min,1913.5 cpm
"[Cl][La]([Cl])[Cl] [La^3+, LaCl3, reference compound]",cytoplasmic [Ca^2+] upon exposure to La^3+,"[3]; 2 μM LaCl3, continuing presence of external Ca^2+",rapid decline
[Tb+3] [Tb3+],Tb3+ emission peaks at 547 nm and 589 nm,"[4]; Pichia membranes containing ORAI1 (E106Q), Tb3+ 10-50 μM",prominent
same,Tb3+-LRET signal,[4]; solubilized ORAI1,specific Tb3+-LRET signal
Myc-tagged STIM1^CT (mouse STIM1 233-685) expressed by retrovirus in STIM1-/- T cells (from UniProt P70302 233-685),"steepest rise of cytoplasmic [Ca^2+] (Fura-2, single cells)",[5],15 nM/s
"STIM1 (233-600): truncated mouse STIM1 cytoplasmic fragment, residues 233-600",maximum levels of cytoplasmic Ca^2+,[3]; compared with STIM1^CT,somewhat less than with STIM1^CT
same,rate of rise of cytoplasmic Ca^2+,[3]; compared with STIM1^CT,nearly comparable to the rate with STIM 1^CT
same,constitutive Ca^2+ influx,"[3]; retroviral expression, Fura-2",activated a prominent constitutive Ca^2+ influx
